# Measurements reported in EP1763350B1, “NICOTINAMIDE DERIVATIVES AND THEIR USE AS THERAPEUTIC AGENTS” (Xenon Pharmaceuticals Inc., priority 2004, dated 2006).
# Where “and” joins values, the source holds several entries; their conditions need not be identical. Identical values can stand only once.
# Molecular target: T1, SCD (Mus musculus, UniProt P13516)
# T1 construct: from tissue; host or cells: mouse liver microsomes (induced for SCD1 expression)
# T1 sequence (P13516 1-355): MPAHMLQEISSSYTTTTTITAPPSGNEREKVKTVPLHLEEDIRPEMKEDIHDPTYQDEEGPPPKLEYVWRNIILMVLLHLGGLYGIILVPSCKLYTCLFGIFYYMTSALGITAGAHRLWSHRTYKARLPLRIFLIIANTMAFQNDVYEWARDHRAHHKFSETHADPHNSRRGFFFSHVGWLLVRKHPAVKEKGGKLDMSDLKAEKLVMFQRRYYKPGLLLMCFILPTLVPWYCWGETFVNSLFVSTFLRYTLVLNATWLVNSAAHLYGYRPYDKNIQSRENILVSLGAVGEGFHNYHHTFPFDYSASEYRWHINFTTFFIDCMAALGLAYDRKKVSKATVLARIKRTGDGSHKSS
# Experiment: SCD microsomal assay (tritiated stearoyl-CoA, release of labeled water), mouse liver microsomes
# Format: biochemical
# Details: % remaining SCD activity at 10 µM of test compound, 100 µg, preincubation 15 minutes, desaturation period 15 minutes at ambient temperature
# Text: The identification of compounds of the invention as SCD inhibitors was readily accomplished using the SCD enzyme and microsomal assay procedure described in Brownlie et al, supra.
# The identification of compounds of the invention as SCD inhibitors was readily accomplished using the SCD enzymes and microsomal assay procedure described in Brownlie et al, PCT published patent application, WO 01/62954. Briefly, mouse or human liver microsomes (induced for SCD1 expression and containing cytochrome b5 and cytochrome b5 reductase) and NADH are suspended in buffer with a compound of the invention, and reaction is initiated by addition of 0.025 mM tritiated stearoyl-CoA. This ligand is tritiated at the C9 and C10 position only. The reaction is allowed to proceed for between 5 and 20 minutes at ambient temperature, whereupon it is halted by addition of acid. Activated charcoal is then added, mixed, and centrifuged to separate labeled substrate from labeled water. An aliquot of supernatant is than tested for radioactivity using liquid scintillation counting. This is taken as a measure of delta-9 desaturase activity.
# Compounds were tested in mouse liver microsomes, 100 µg, preincubation with the test compound for 15 minutes at ambient temperature, a desaturation period for 15 minutes at ambient temperature, utilizing the large volume bench-top tube method. TABLE 3. SCD INHIBITORY ACTIVITY FOR SELECTED COMPOUNDS.
activity at 10 µM [%],% Activity 10 µM,Compound
1.8,–,CCSCCNC(=O)c1ccc(N2CCN(C(=O)Cc3ccc(C)cc3)CC2)nc1 [N-(2-Ethylsulfanyl-ethyl)-6-[4-(2-p-tolylacetyl)-piperazin-1-yl]-nicotinamide]
1.7,–,CCC(CC)C(=O)N1CCN(c2ccc(C(=O)NCCC(C)C)cn2)CC1 [6-[4-(2-Ethylbutyryl)-piperazin-1-yl]-N-(3-methylbutyl)-nicotinamide]
1.2,–,COCCCNC(=O)c1ccc(N2CCN(C(=O)c3ccccc3Br)CC2)nc1 [6-[4-(2-Bromo-benzoyl)-piperazin-1-yl]-N-(3-methoxy-propyl)-nicotinamide]
2,–,CCCCNC(=O)c1ccc(N2CCN(C(=O)C(CC)CC)CC2)nc1 [N-Butyl-6-[4-(2-ethylbutyryl)-piperazin-1-yl]-nicotinamide]
–,3.9% and 1.3%,O=C(NCCCc1ccccc1)c1ccc(N2CCN(C(=O)c3ccccc3C(F)(F)F)CC2)nc1 [N-(3-Phenyl-propyl)-6-[4-(2-trifluoromethyl-benzoyl)-piperazin-1-yl]-nicotinamide]
2.1,–,CCCC(C)NC(=O)c1ccc(N2CCN(C(=O)CCC3CCCCC3)CC2)nc1 (centres unmarked) [6-[4-(3-Cyclohexyl-propionyl)-piperazin-1-yl]-N-(1-methylbutyl)-nicotinamide]
2.7,–,"CC(CCc1ccccc1)NC(=O)c1ccc(N2CCN(C(=O)c3ccc(Cl)cc3Cl)CC2)nc1 (centres unmarked) [6-[4-(2,4-Dichloro-benzoyl)-piperazin-1-yl]-N-(1-methyl-3-phenyl-propyl)-nicotinamide]"
3.6,–,CCC(C(=O)N1CCN(c2ccc(C(=O)NCCCc3ccccc3)cn2)CC1)c1ccccc1 (centres unmarked) [6-[4-(2-Phenyl-butyryl)-piperazin-1-yl]-N-(3-phenyl-propyl)-nicotinamide]
3.4,–,Cc1ccsc1C(=O)N1CCN(c2ccc(C(=O)NC(C)CCc3ccccc3)cn2)CC1 (centres unmarked) [N-(1-Methyl-3-phenyl-propyl)-6-[4-(3-methyl-thiophene-2-carbonyl)-piperazin-1-yl]-nicotinamide]
3.2,–,Cc1ccccc1CC(=O)N1CCN(c2ccc(C(=O)NCCC(C)C)cn2)CC1 [N-(3-Methyl-butyl)-6-[4-(2-o-tolyl-acetyl)-piperazin-1-yl]-nicotinamide]
1.2,–,"CCCCCNC(=O)c1ccc(N2CCN(C(=O)c3ccc(Cl)cc3Cl)CC2)nc1 [6-[4-(2,4-Dichloro-benzoyl)-piperazin-1-yl]-N-pentyl-nicotinamide]"
1.8,–,"CC(C)CC(C)NC(=O)c1ccc(N2CCN(C(=O)c3ccccc3C(F)(F)F)CC2)nc1 (centres unmarked) [N-(1,3-Dimethylbutyl)-6-[4-(2-trifluoromethyl-benzoyl)-piperazin-1-yl]-nicotinamide]"
1.4,–,CCSCCNC(=O)c1ccc(N2CCN(C(=O)CCC3CCCCC3)CC2)nc1 [6-[4-(3-Cyclohexyl-propionyl)-piperazin-1-yl]-N-(2-ethylsulfanyl-ethyl)-nicotinamide]
0.7,–,CCCCCNC(=O)c1ccc(N2CCN(C(=O)Cc3ccc4ccccc4c3)CC2)nc1 [6-[4-(2-Naphthalen-2-yl-acetyl)-piperazin-1-yl]-N-pentylnicotinamide]
1.4,–,CCSCCNC(=O)c1ccc(N2CCN(C(=O)c3cc(OC)ccc3Br)CC2)nc1 [6-[4-(2-Bromo-5-methoxy-benzoyl)-piperazin-1-yl]-N-(2-ethylsulfanylethyl)-nicotinamide]
1.3,–,CC(C)CCNC(=O)c1ccc(N2CCN(C(=O)CCC3CCCCC3)CC2)nc1 [6-[4-(3-Cyclohexyl-propionyl)-piperazin-1-yl]-N-(3-methylbutyl)-nicotinamide]
1.1,–,COc1ccc(Br)c(C(=O)N2CCN(c3ccc(C(=O)NCCc4ccccc4)cn3)CC2)c1 [6-[4-(2-Bromo-5-methoxy-benzoyl)-piperazin-1-yl]-N-phenethylnicotinamide]
1,–,CCOCCCNC(=O)c1ccc(N2CCN(C(=O)c3ccccc3Br)CC2)nc1 [6-[4-(2-Bromo-benzoyl)-piperazin-1-yl]-N-(3-ethoxy-propyl)-nicotinamide]

Compound,activity at 10 µM [%],% Activity 10 µM
CCCCOCCCNC(=O)c1ccc(N2CCN(C(=O)c3ccccc3Br)CC2)nc1 [6-[4-(2-Bromo-benzoyl)-piperazin-1-yl]-N-(3-butoxy-propyl)-nicotinamide],0.8,–
"CCCCOCCCNC(=O)c1ccc(N2CCN(C(=O)c3ccc(C)cc3C)CC2)nc1 [N-(3-Butoxy-propyl)-6-[4-(2,4-dimethylbenzoyl)-piperazin-1-yl]-nicotinamide]",0.7,–
